A short description of data set [1]: in vivo. Particulars: rat, brain, po, 10 mg/kg.
Data set [2] in a line: in vivo. Particulars: rat, plasma, po, 10 mg/kg.
The nature of data set [3]: in vivo. Particulars: rat, cerebrospinal fluid, po, 10 mg/kg.

Turning to `CC1(C)CN2CCNCc3ccc(F)c1c32`, the concentration at 1 h in data set [1] is 8860 ng/g; in data set [2], 608 ng/mL; in data set [3], 170 ng/mL.

The record behind these values is ChEMBL document CHEMBL4616608, “Discovery of a lead series of potent benzodiazepine 5-HT2C receptor agonists with high selectivity in functional and binding assays” (Bioorg Med Chem Lett, 2020).
